Consider 29 molecules from patent US10730858B2, “Lactam, cyclic urea and carbamate, and triazolone derivatives as potent and selective rock inhibitors” (BRISTOL-MYERS SQUIBB COMPANY, priority 2016, dated 2020).

Where two headings read alike, the source gives them in different places. Where only a bound is given, the exact number is not on record here.

In assay [1] the target is ROCK2 (Homo sapiens, UniProt O75116). In words: ROCK2 assay (Caliper LABCHIP peptide phosphorylation, kinase inhibition). The format is biochemical. The settings on record: 5 μM ATP, 1.5 μM peptide substrate. As for the experimental part: The effectiveness of compounds of the present invention as ROCK inhibitors can be determined in a 30 μL assay containing 20 mM HEPES, pH 7.5, 20 mM MgCl2, 0.015% Brij-35, 4 mM DTT, 5 μM ATP and 1.5 μM peptide substrate (FITC-AHA-AKRRRLSSLRA-OH) (SEQ ID NO. 1). Compounds were dissolved in DMSO so that the final concentration of DMSO was <2%, and the reaction was initiated with Rho kinase variants. After incubation, the reaction was terminated by the addition of EDTA and the phosphorylated and non-phosphorylated peptides separated using a LABCHIP® 3000 Reader (Caliper Life Sciences). […] Compounds were tested in dose-response format, and the inhibition of kinase activity was calculated at each concentration of compound. The inhibition data were fit using a curve-fitting program to determine the IC50; i.e., the concentration of compound required to inhibit 50% of kinase activity.
Representative Examples were tested in the ROCK2 assay described above and found having ROCK2 inhibitory activity. The ranges of the ROCK2 IC50 values are as follows: ROCK2 IC50: ++++ (<10 nM) +++ (10-100 nM) ++ (100-500 nM) + (500-2000 nM)

Assay [2] deals with neointimal formation. The settings on record: rats; cited from earlier work.
For assay [3], the system named is rat models of hypertension. The settings on record: cited from earlier work.
The test system of assay [4] is congestive heart failure in Dahl salt-sensitive rats. Conditions: rat, in vivo; cited from earlier work.
Assay [5] has as its system rat stroke model. The settings on record: in vivo; cited from earlier work.
Assay [6] deals with IL-1 beta-induced coronary stenosis. Conditions: long term treatment; cited from earlier work.

Chain of ROCK2 (O75116 whole entry, species assumed): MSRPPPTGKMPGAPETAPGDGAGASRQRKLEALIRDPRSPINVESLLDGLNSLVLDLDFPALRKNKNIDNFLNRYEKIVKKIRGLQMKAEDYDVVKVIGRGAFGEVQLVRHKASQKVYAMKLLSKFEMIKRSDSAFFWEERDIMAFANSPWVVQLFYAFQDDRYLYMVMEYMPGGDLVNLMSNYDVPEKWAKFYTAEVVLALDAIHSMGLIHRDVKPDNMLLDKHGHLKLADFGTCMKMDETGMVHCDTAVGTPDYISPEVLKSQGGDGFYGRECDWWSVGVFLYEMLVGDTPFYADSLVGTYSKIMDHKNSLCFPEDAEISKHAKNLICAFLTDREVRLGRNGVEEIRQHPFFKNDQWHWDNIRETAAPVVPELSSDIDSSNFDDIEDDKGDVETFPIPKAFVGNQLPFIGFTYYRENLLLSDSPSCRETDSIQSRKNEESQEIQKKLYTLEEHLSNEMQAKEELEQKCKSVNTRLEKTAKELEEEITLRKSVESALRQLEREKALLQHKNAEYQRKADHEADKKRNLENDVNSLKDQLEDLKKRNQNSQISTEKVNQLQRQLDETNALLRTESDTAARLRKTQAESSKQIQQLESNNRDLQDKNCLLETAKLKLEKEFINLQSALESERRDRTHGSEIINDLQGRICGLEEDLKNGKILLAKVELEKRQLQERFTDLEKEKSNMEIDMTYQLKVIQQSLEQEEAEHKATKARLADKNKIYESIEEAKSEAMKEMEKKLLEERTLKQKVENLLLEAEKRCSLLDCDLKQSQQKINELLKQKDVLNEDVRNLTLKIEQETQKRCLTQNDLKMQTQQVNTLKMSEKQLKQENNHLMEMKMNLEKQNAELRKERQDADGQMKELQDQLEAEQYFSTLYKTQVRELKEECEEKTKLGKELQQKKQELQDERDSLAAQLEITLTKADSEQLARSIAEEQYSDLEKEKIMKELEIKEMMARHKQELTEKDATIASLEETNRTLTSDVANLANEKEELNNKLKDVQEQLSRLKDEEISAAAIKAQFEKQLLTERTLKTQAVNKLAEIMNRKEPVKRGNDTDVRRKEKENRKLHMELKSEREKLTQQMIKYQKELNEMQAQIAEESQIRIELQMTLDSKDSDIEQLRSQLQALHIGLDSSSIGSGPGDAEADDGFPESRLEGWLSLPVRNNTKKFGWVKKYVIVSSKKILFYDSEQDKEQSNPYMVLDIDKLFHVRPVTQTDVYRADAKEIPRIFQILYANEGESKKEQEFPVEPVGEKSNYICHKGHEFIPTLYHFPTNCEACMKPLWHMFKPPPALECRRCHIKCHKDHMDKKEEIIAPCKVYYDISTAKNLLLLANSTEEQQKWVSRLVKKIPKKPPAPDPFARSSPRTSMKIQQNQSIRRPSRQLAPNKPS

What is called IC50 is the point on the concentration scale where inhibition reaches its midpoint. Take `O=c1n(Cc2ccccc2)cnn1-c1ccc(-c2n[nH]c(=O)n3cccc23)cc1` [Example 47, 4-benzyl-1-(4-{4-oxo-3H,4H-pyrrolo[1,2-d][1,2,4]triazin-1-yl}phenyl)-4,5-dihydro-1H-1,2,4-triazol-5-one]: the half-inhibitory concentration (IC50) in assay [1] was 500 to 2000 nM.
In assay [1], `COc1cc(NC2CCN(c3ccc(-c4n[nH]c(=O)c5ccccc45)cc3)C2=O)ccc1N1CCN(C)CC1` (stereo not shown) [Example 48, 4-[4-(3-{[3-methoxy-4-(4-methylpiperazin-1-yl)phenyl]amino}-2-oxopyrrolidin-1-yl)phenyl]-1,2-dihydrophthalazin-1-one] yielded a 50% inhibitory concentration (IC50) of 10 to 100 nM.
Same read-out and setting: in the case of `COc1cc(NC2CCN(c3ccc(-c4n[nH]c(=O)c5ccccc45)cc3)C2=O)ccc1N1CCOCC1` (stereo not shown) [Example 49, 4-[4-(3-{[3-methoxy-4-(morpholin-4-yl)phenyl]amino}-2-oxopyrrolidin-1-yl)phenyl]-1,2-dihydrophthalazin-1-one] it was 10 to 100 nM; in that of `O=C1C(Nc2ccc3c(c2)OCCO3)CCN1c1ccc(-c2n[nH]c(=O)c3ccccc23)cc1` (stereo not shown) [Example 50, 4-(4-{3-[(2,3-dihydro-1,4-benzodioxin-6-yl)amino]-2-oxopyrrolidin-1-yl}phenyl)-1,2-dihydrophthalazin-1-one], 10 to 100 nM.
On the same count and under the same terms, with `O=C1C(Nc2ccc3c(c2)OC(F)(F)O3)CCN1c1ccc(-c2n[nH]c(=O)c3ccccc23)cc1` (stereo not shown) [Example 51, 4-(4-{3-[(2,2-difluoro-2H-1,3-benzodioxol-5-yl)amino]-2-oxopyrrolidin-1-yl}phenyl)-1,2-dihydrophthalazin-1-one] the figure was 10 to 100 nM.
Same read-out and setting: with `O=C1C(Nc2cccc(OC(F)(F)F)c2)CCN1c1ccc(-c2n[nH]c(=O)c3ccccc23)cc1` (stereo not shown) [Example 52, 4-[4-(2-oxo-3-{[3-(trifluoromethoxy)phenyl]amino}pyrrolidin-1-yl)phenyl]-1,2-dihydrophthalazin-1-one] the figure was less than 10 nM; with `O=c1[nH]nc(-c2ccc(-n3ncn(Cc4cccc(F)c4)c3=O)cc2)c2ccccc12` [Example 53, 4-(4-{4-[(3-fluorophenyl)methyl]-5-oxo-4,5-dihydro-1H-1,2,4-triazol-1-yl}phenyl)-1,2-dihydrophthalazin-1-one], 100 to 500 nM.
For the molecule `CC(c1ccccc1)n1cnn(-c2ccc(-c3n[nH]c(=O)c4ccccc34)cc2)c1=O` (stereo not shown) [Example 54, 4-{4-[5-oxo-4-(1-phenylethyl)-4,5-dihydro-1H-1,2,4-triazol-1-yl]phenyl}-1,2-dihydrophthalazin-1-one], the IC50 in assay [1] lay within 500 to 2000 nM.
For the molecule `CC(C)Oc1cccc(NC2CCN(c3ccc(-c4n[nH]c(=O)c5ccccc45)cc3)C2=O)c1` (stereo not shown) [Example 57, 4-[4-(2-oxo-3-{[3-(propan-2-yloxy)phenyl]amino}pyrrolidin-1-yl)phenyl]-1,2-dihydrophthalazin-1-one], in assay [1], the IC50 lay within 10 to 100 nM.
Same read-out and setting: in the case of `N#Cc1cnc(NC2CCN(c3ccc(-c4n[nH]c(=O)c5ccccc45)cc3)C2=O)s1` (stereo not shown) [Example 59, 2-({2-oxo-1-[4-(4-oxo-3,4-dihydrophthalazin-1-yl)phenyl]pyrrolidin-3-yl}amino)-1,3-thiazole-5-carbonitrile] it was 100 to 500 nM.
Consider `O=C1C(Nc2ccc(OC(F)F)cc2)CCN1c1ccc(-c2n[nH]c(=O)c3ccccc23)cc1` (stereo not shown) [Example 60, 4-[4-(3-{[4-(difluoromethoxy)phenyl]amino}-2-oxopyrrolidin-1-yl)phenyl]-1,2-dihydrophthalazin-1-one], for which the IC50 in assay [1] was 10 to 100 nM.
`COc1ccccc1NC1CCN(c2ccc(-c3n[nH]c(=O)c4ccccc34)cc2)C1=O` (stereo not shown) [Example 61, 4-(4-{3-[(2-methoxyphenyl)amino]-2-oxopyrrolidin-1-yl}phenyl)-1,2-dihydrophthalazin-1-one]: in assay [1], the IC50 is 10 to 100 nM.
Molecule `O=c1[nH]nc(-c2ccc(-n3ncn(Cc4cccc(OC(F)F)c4)c3=O)cc2)c2ccccc12` [Example 63, 4-[4-(4-{[3-(difluoromethoxy)phenyl]methyl}-5-oxo-4,5-dihydro-1H-1,2,4-triazol-1-yl)phenyl]-1,2-dihydrophthalazin-1-one] came in with an IC50 in assay [1] of 100 to 500 nM.
The same measure, in the same setting: with `CC(C)n1ccc(NC2CCN(c3ccc(-c4n[nH]c(=O)c5ccccc45)cc3)C2=O)n1` (stereo not shown) [Example 64, 4-[4-(2-oxo-3-{[1-(propan-2-yl)-1H-pyrazol-3-yl]amino}pyrrolidin-1-yl)phenyl]-1,2-dihydrophthalazin-1-one] the figure was 10 to 100 nM; with `Cn1ccc(NC2CCN(c3ccc(-c4n[nH]c(=O)c5ccccc45)cc3)C2=O)n1` (stereo not shown) [Example 65, 4-(4-{3-[(1-methyl-1H-pyrazol-3-yl)amino]-2-oxopyrrolidin-1-yl}phenyl)-1,2-dihydrophthalazin-1-one], 100 to 500 nM.
Same read-out and setting: in the case of `CS(=O)(=O)c1cccc(NC2CCN(c3ccc(-c4n[nH]c(=O)c5ccccc45)cc3)C2=O)c1` (stereo not shown) [Example 67, 4-(4-{3-[(3-methanesulfonylphenyl)amino]-2-oxopyrrolidin-1-yl}phenyl)-1,2-dihydrophthalazin-1-one] it was 10 to 100 nM; in that of `CSc1cccc(NC2CCN(c3ccc(-c4n[nH]c(=O)c5ccccc45)cc3)C2=O)c1` (stereo not shown) [Example 68, 4-[4-(3-{[3-(methylsulfanyl)phenyl]amino}-2-oxopyrrolidin-1-yl)phenyl]-1,2-dihydrophthalazin-1-one], 10 to 100 nM; in that of `O=C1C(Nc2cccc(F)n2)CCN1c1ccc(-c2n[nH]c(=O)c3ccccc23)cc1` (stereo not shown) [Example 69, 4-(4-{3-[(6-fluoropyridin-2-yl)amino]-2-oxopyrrolidin-1-yl}phenyl)-1,2-dihydrophthalazin-1-one], 10 to 100 nM.
In assay [1], `O=C1C(Nc2ccc3c(c2)CCNC3)CCN1c1ccc(-c2n[nH]c(=O)c3ccccc23)cc1` (stereo not shown) [Example 70, 4-(4-{2-oxo-3-[(1,2,3,4-tetrahydroisoquinolin-6-yl)amino]pyrrolidin-1-yl}phenyl)-1,2-dihydrophthalazin-1-one] returned a half-maximal inhibitory concentration (IC50) of 100 to 500 nM.
Still for that read-out and setting: in the case of `CC(C)c1cc(NC2CCN(c3ccc(-c4n[nH]c(=O)c5ccccc45)cc3)C2=O)n(C)n1` (stereo not shown) [Example 71, 4-[4-(3-{[1-methyl-3-(propan-2-yl)-1H-pyrazol-5-yl]amino}-2-oxopyrrolidin-1-yl)phenyl]-1,2-dihydrophthalazin-1-one] it was 10 to 100 nM; in that of `COc1cccc(Cn2c(C)nn(-c3ccc(-c4c[nH]c(=O)c5ccsc45)cc3)c2=O)c1` [Example 72, 4-[(3-methoxyphenyl)methyl]-3-methyl-1-(4-{4-oxo-3aH,4H,5H,7aH-thieno[3,2-c]pyridin-7-yl}phenyl)-4,5-dihydro-1H-1,2,4-triazol-5-one], 500 to 2000 nM.
The same measure, in the same setting: with `N#Cc1ccnc(NC2CCN(c3ccc(-c4n[nH]c(=O)c5ccccc45)cc3)C2=O)c1` (stereo not shown) [Example 74, 2-({2-oxo-1-[4-(4-oxo-3,4-dihydrophthalazin-1-yl)phenyl]pyrrolidin-3-yl}amino)pyridine-4-carbonitrile] the figure was 10 to 100 nM; with `CN1CCc2cc(NC3CCN(c4ccc(-c5n[nH]c(=O)c6ccccc56)cc4)C3=O)ccc2C1` (stereo not shown) [Example 75, 4-(4-{3-[(2-methyl-1,2,3,4-tetrahydroisoquinolin-6-yl)amino]-2-oxopyrrolidin-1-yl}phenyl)-1,2-dihydrophthalazin-1-one], 500 to 2000 nM.
Same read-out and setting: with `COc1cccc(OC2CCN(c3ccc(-c4n[nH]c(=O)c5ccccc45)cc3)C2=O)c1` (stereo not shown) [Example 86, 4-{4-[3-(3-methoxyphenoxy)-2-oxopyrrolidin-1-yl]phenyl}-1,2-dihydrophthalazin-1-one] the figure was 10 to 100 nM.
For the molecule `COc1ccc(F)c(OC2CCN(c3ccc(-c4n[nH]c(=O)c5ccccc45)cc3)C2=O)c1` (stereo not shown) [Example 87, 4-{4-[3-(2-fluoro-5-methoxyphenoxy)-2-oxopyrrolidin-1-yl]phenyl}-1,2-dihydrophthalazin-1-one], in assay [1], the IC50 is 10 to 100 nM.
The same measure, in the same setting: in the case of `COc1cc(OC2CCN(c3ccc(-c4n[nH]c(=O)c5ccccc45)cc3)C2=O)ccc1F` (stereo not shown) [Example 88, 4-{4-[3-(4-fluoro-3-methoxyphenoxy)-2-oxopyrrolidin-1-yl]phenyl}-1,2-dihydrophthalazin-1-one] it was 10 to 100 nM.
On to `COc1cc(F)cc(OC2CCN(c3ccc(-c4n[nH]c(=O)c5ccccc45)cc3)C2=O)c1` (stereo not shown) [Example 89, 4-{4-[3-(3-fluoro-5-methoxyphenoxy)-2-oxopyrrolidin-1-yl]phenyl}-1,2-dihydrophthalazin-1-one], for which the IC50 in assay [1] lay within 10 to 100 nM.
As for `C[C@@H](N)[C@H]1CC[C@H](C(=O)Nc2ccncc2)CC1` [Example Y-27632, Y-27632], the neointimal formation entry in assay [2] was “inhibited neointimal formation”. Also, the blood pressure result in assay [3] (control rats) is “only a minor effect”; in assay [3] (spontaneously hypertensive rat, renal hypertensive rat and deoxycortisone acetate salt hypertensive rat models) it was “significantly decrease blood pressure”. Also, the “ventricular hypertrophy, fibrosis and function” value in assay [4] was “improve ventricular hypertrophy, fibrosis and function”.
Consider `O=S(=O)(c1cccc2cnccc12)N1CCCNCC1` [fasudil], for which the “infarct size and neurologic deficit” value in assay [5] is “reduce both the infarct size and neurologic deficit”. Moreover, in assay [6], the coronary constrictive remodeling result is reported as “promote a regression of coronary constrictive remodeling” and the coronary stenosis entry is given as “progressively reduce coronary stenosis”.
